Reference: patent publication US12643887B2, “Heterocyclic derivatives with cardiomyocyte proliferation activity for treatment of heart diseases” (Tongji University, priority 2019, dated 2026)

Columns and labels:
Assay type in all cases: biochemical
human GSK3 beta = target: T1, human GSK3 beta (Homo sapiens, UniProt P49841); assay: GSK3 beta enzyme assay (ADP-Glo); conditions: ATP 25 μM, read-out: GSK3b IC50
T1 construct: Recombinant full-length human GSK3 beta (expressed in Sf9 insect cells with an N-terminal His tag); His (N); purchased SignalChem G09-10H; host or cells: Sf9 insect cells
Summary of the method: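 Full-length His-tagged human GSK3β from Sf9 cells (4 nM) preincubated 30 min at 25 °C with inhibitor in Tris pH 7.5/MgCl2/BSA/DTT, then reacted 60 min at 25 °C with 13 μM substrate peptide and 25 μM ATP. ADP measured by ADP-Glo luminescence; IC50 from four-parameter logistic fit of % inhibition.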

human DYRK1A = target: T2, human DYRK1A (Homo sapiens, UniProt Q13627); assay: DYRK1A enzyme assay (ADP-Glo); conditions: ADP-Glo, ATP 60 μM; read-out: DYRK1A IC50
T2 construct: Recombinant full-length DYRK1A (expressed in E. Coli cells with an N-terminal GST tag); GST (N); purchased SignalChem D09-10G; host or cells: E. coli
Summary of the method: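 ADP formed is quantified by luciferase luminescence (ADP-Glo) after a 60-minute, 25 °C reaction with 60 μM ATP and 20 μM DYRKtide peptide. Enzyme: 3 nM recombinant N-terminal GST DYRK1A, given 30 min compound preincubation in Tris pH 7.5/MgCl2/BSA/DTT buffer; % inhibition versus plate controls, four-parameter IC50.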

human CLK1 = target: T3, human CLK1 (Homo sapiens, UniProt P49759); assay: CLK1 enzyme assay (ADP-Glo); conditions: ADP-Glo, ATP 10 μM; read-out: CLK1 IC50
T3 construct: Recombinant human CLK1 (129-end); GST (N); purchased SignalChem C57-11G; host or cells: Sf9 insect cells
Summary of the method: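 GST-tagged CLK1 (129-end, Sf9-expressed) at 16 nM was preincubated with compound 30 min at 25 °C in 40 mM Tris pH 7.5, 20 mM MgCl2, 0.1 mg/ml BSA, 50 μM DTT. Reaction with 2 μM substrate and 10 μM ATP ran 60 min at 25 °C. ADP-Glo luminescence gave IC50 by four-parameter fit.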

T3 sequence (P49759 129-484 limits assumed): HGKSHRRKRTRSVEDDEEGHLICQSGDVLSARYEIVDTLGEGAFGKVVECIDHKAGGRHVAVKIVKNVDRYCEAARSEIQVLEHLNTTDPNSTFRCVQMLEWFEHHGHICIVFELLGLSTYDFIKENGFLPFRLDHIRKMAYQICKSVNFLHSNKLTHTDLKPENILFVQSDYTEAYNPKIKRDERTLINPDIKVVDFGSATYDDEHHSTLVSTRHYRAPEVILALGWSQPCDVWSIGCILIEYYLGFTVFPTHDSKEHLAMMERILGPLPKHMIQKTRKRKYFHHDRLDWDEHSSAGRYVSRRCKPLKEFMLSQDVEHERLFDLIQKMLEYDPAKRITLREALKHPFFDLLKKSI
T1 sequence (P49841 whole entry): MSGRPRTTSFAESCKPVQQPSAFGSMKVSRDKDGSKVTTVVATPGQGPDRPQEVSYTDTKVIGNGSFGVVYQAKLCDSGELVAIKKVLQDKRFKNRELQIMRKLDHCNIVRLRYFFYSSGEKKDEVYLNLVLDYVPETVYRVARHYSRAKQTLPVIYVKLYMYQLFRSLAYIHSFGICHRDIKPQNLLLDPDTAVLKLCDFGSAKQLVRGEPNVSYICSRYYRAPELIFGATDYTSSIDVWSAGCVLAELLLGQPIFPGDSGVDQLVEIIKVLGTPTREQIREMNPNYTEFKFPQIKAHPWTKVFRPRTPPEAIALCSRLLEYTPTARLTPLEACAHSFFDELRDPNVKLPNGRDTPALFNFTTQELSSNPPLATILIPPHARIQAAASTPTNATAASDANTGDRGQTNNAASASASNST

SMILES | IC50 (human GSK3 beta) | IC50 (human DYRK1A) | IC50 (human CLK1)
O=C1NC(Nc2ccccc2)=N/C1=C\c1ccc2[nH]cnc2c1 [Example 26, (Z)-5-((1H-benzo[d]imidazol-5-yl)methylene)-2-(phenylamino)-3,5-dihydro-4H-imidazol-4-one] | 100 to 1000 nM | < 100 nM | < 100 nM
NC(=O)CCN(C1=N/C(=C\c2ccc3c(c2)OCO3)C(=O)N1)c1ccccc1 [Example 36, (Z)-3-((4-(benzo[d][1,3]dioxol-5-ylmethylene)-5-oxo-4,5-dihydro-1H-imidazol-2-yl)(phenyl)amino)propanamide] | > 10000 nM | 100 to 1000 nM | 100 to 1000 nM
O=C1NC(Nc2ccccc2)=N/C1=C\c1cncs1 [Example 15, (Z)-2-(phenylamino)-5-(thiazol-5-ylmethylene)-3,5-dihydro-4H-imidazol-4-one] | > 10000 nM | > 10000 nM | > 10000 nM
CN(CCN1CCOCC1)C1=N/C(=C\c2ccc3c(c2)OCO3)C(=O)N1 [Example 20, (Z)-5-(benzo[d][1,3]dioxol-5-ylmethylene)-2-(methyl(2-morpholinoethyl)amino)-3,5-dihydro-4H-imidazol-4-one] | 1000 to 10000 nM | 100 to 1000 nM | 100 to 1000 nM
CN(C1=N/C(=C\c2ccc3ncsc3c2)C(=O)N1)c1ccccc1 [Example 7, (Z)-5-(benzo[d]thiazol-6-ylmethylene)-2-(methyl(phenyl)amino)-3,5-dihydro-4H-imidazol-4-one] | 1000 to 10000 nM | 100 to 1000 nM | 100 to 1000 nM
CN(C1=N/C(=C\c2ccc3[nH]cnc3c2)C(=O)N1)c1ccccc1 [Example 30, (Z)-5-((1H-benzo[d]imidazol-5-yl)methylene)-2-(methyl(phenyl)amino)-3,5-dihydro-4H-imidazol-4-one] | > 10000 nM | 1000 to 10000 nM | 100 to 1000 nM
Cn1ncc2cc(/C=C3\N=C(Nc4ccccc4)NC3=O)ccc21 [Example 77, (Z)-5-((1-methyl-1H-indazol-5-yl)methylene)-2-(phenylamino)-3,5-dihydro-4H-imidazol-4-one] | > 10000 nM | < 100 nM | 100 to 1000 nM
O=C1NC(Nc2ccc3ncsc3c2)=NC1Cc1ccc2ncsc2c1 (stereo not drawn) [Example 102, 2-(benzo[d]thiazol-6-ylamino)-5-(benzo[d]thiazol-6-ylmethyl)-3,5-dihydro-4H-imidazol-4-one] | > 10000 nM | 1000 to 10000 nM | 100 to 1000 nM
O=C1NC(N(Cc2ccccc2)c2ccccc2)=N/C1=C\c1ccc2ncsc2c1 [Example 41, (Z)-5-(benzo[d]thiazol-6-ylmethylene)-2-(benzyl(phenyl)amino)-3,5-dihydro-4H-imidazol-4-one] | 1000 to 10000 nM | 100 to 1000 nM | < 100 nM
O=C1NC(Nc2ccccc2)=N/C1=C\c1ccc(=O)[nH]c1 [Example 9, (Z)-5-((5-oxo-2-(phenylamino)-1,5-dihydro-4H-imidazol-4-ylidene)methyl)pyridin-2(1H)-one] | > 10000 nM | 100 to 1000 nM | 100 to 1000 nM
O=C1NC(N(CC2CC2)c2ccccc2)=N/C1=C\c1ccc2c(c1)OCCO2 [Example 39, (Z)-2-((cyclopropylmethyl)(phenyl)amino)-5-((2,3-dihydrobenzo[b][1,4]dioxin-6-yl)methylene)-3,5-dihydro-4H-imidazol-4-one] | > 10000 nM | 1000 to 10000 nM | > 10000 nM
O=C1NC(Nc2ccccc2)=N/C1=C\c1ccc2[nH]ncc2c1 [Example 55, (Z)-5-((1H-indazol-5-yl)methylene)-2-(phenylamino)-3,5-dihydro-4H-imidazol-4-one] | 100 to 1000 nM | < 100 nM | < 100 nM
CN(CC1CC1)C1=N/C(=C\c2ccc3c(c2)OCO3)C(=O)N1 [Example 11, (Z)-5-(benzo[d][1,3]dioxol-5-ylmethylene)-2-((cyclopropylmethyl)(methyl)amino)-3,5-dihydro-4H-imidazol-4-one] | > 10000 nM | 100 to 1000 nM | 100 to 1000 nM
CC(C)NC1=N/C(=C\c2ccc3ncsc3c2)C(=O)N1C [Example 45, (Z)-5-(benzo[d]thiazol-6-ylmethylene)-2-(isopropylamino)-3-methyl-3,5-dihydro-4H-imidazol-4-one] | 1000 to 10000 nM | 100 to 1000 nM | < 100 nM
CC(C)NC1=N/C(=C\c2ccc3scnc3c2)C(=O)N1 [Example 49, (Z)-5-(benzo[d]thiazol-5-ylmethylene)-2-(isopropylamino)-3,5-dihydro-4H-imidazol-4-one] | > 10000 nM | > 10000 nM | > 10000 nM
O=C1NC(Nc2ccccc2)=N/C1=C\c1ccc2cc[nH]c2c1 [Example 73, (Z)-5-((1H-indol-6-yl)methylene)-2-(phenylamino)-3,5-dihydro-4H-imidazol-4-one] | > 10000 nM | > 10000 nM | > 10000 nM

Other lines, results leading:

IC50 (human GSK3 beta) | IC50 (human DYRK1A) | IC50 (human CLK1) | SMILES
100 to 1000 nM | < 100 nM | < 100 nM | Cn1cnc2ccc(/C=C3\N=C(Nc4ccc5ncsc5c4)NC3=O)cc21 [Example 75, (Z)-2-(benzo[d]thiazol-6-ylamino)-5-((1-methyl-1H-benzo[d]imidazol-6-yl)methylene)-3,5-dihydro-4H-imidazol-4-one]
> 10000 nM | > 10000 nM | > 10000 nM | O=C1NC(Nc2ccc3ncsc3c2)=N/C1=C\c1ccc2occc2c1 [Example 59, (Z)-2-(benzo[d]thiazol-6-ylamino)-5-(benzofuran-5-ylmethylene)-3,5-dihydro-4H-imidazol-4-one]
> 10000 nM | > 10000 nM | > 10000 nM | O=C1NC(Nc2ccc3ncsc3c2)=N/C1=C\c1ccc2cccnc2c1 [Example 60, (Z)-2-(benzo[d]thiazol-6-ylamino)-5-(quinolin-7-ylmethylene)-3,5-dihydro-4H-imidazol-4-one]
1000 to 10000 nM | 100 to 1000 nM | 100 to 1000 nM | CN(C1=N/C(=C\c2ccc3c(c2)OCCO3)C(=O)N1)c1ccc2ncsc2c1 [Example 84, (Z)-2-(benzo[d]thiazol-6-yl(methyl)amino)-5-((2,3-dihydrobenzo[b][1,4]dioxin-6-yl)methylene)-3,5-dihydro-4H-imidazol-4-one]
> 10000 nM | > 10000 nM | > 10000 nM | Cn1ncc2cc(/C=C3\N=C(Nc4ccc5ncsc5c4)NC3=O)ccc21 [Example 78, (Z)-2-(benzo[d]thiazol-6-ylamino)-5-((1-methyl-1H-indazol-5-yl)methylene)-3,5-dihydro-4H-imidazol-4-one]
> 10000 nM | > 10000 nM | > 10000 nM | O=C1NC(Nc2ccc3ncsc3c2)=N/C1=C\c1ccc2[nH]ccc2c1 [Example 58, (Z)-5-((1H-indol-5-yl)methylene)-2-(benzo[d]thiazol-6-ylamino)-3,5-dihydro-4H-imidazol-4-one]
> 10000 nM | > 10000 nM | > 10000 nM | O=C1NC(Nc2ccc3ncsc3c2)=N/C1=C\c1ccc2cc[nH]c2c1 [Example 63, (Z)-5-((1H-indol-6-yl)methylene)-2-(benzo[d]thiazol-6-ylamino)-3,5-dihydro-4H-imidazol-4-one]
> 10000 nM | > 10000 nM | > 10000 nM | O=C1NC(Nc2ccc3ncsc3c2)=N/C1=C\c1ccc2c(c1)OCCO2 [Example 74, (Z)-2-(benzo[d]thiazol-6-ylamino)-5-((2,3-dihydrobenzo[b][1,4]dioxin-6-yl)methylene)-3,5-dihydro-4H-imidazol-4-one]
> 10000 nM | 1000 to 10000 nM | 1000 to 10000 nM | CN(C1=N/C(=C\c2ccc3ncsc3c2)C(=O)N1)c1ccc([N+](=O)[O-])cc1 [Example 43, (Z)-5-(benzo[d]thiazol-6-ylmethylene)-2-(methyl(4-nitrophenyl)amino)-3,5-dihydro-4H-imidazol-4-one]
> 10000 nM | > 10000 nM | > 10000 nM | Cn1cnc2cc(/C=C3\N=C(Nc4ccccc4)NC3=O)ccc21 [Example 71, (Z)-5-((1-methyl-1H-benzo[d]imidazol-5-yl)methylene)-2-(phenylamino)-3,5-dihydro-4H-imidazol-4-one]
> 10000 nM | 1000 to 10000 nM | 100 to 1000 nM | O=C1NC(N(Cc2ccccc2)c2ccccc2)=N/C1=C\c1ccc2[nH]cnc2c1 [Example 35, (Z)-5-((1H-benzo[d]imidazol-5-yl)methylene)-2-(benzyl(phenyl)amino)-3,5-dihydro-4H-imidazol-4-one]
